Values quoted from earlier work, collected in article PMC5641599 (Molecular Metabolism, 2017).
Like-named read-outs stand apart in the source and are kept apart here.

Assays:
[1] = test system: MC4R variants; conditions: cited from earlier work
[2] = test system: MC4R variants; conditions: cited from earlier work; remark: listed apart in the source

Substance: NDP-MSH
- cAMP Emax - Ligand no.3 ([1]; MC4R C40R, COS-7 cell line, ref Tarnow P, J Biol Chem, 2003): 118.6 % of WT
- cAMP Emax - Ligand no.3 ([1]; MC4R C40R, ref Rong R, Clin Endocrinol, 2006): 87.0 % of WT
- cAMP Emax - Ligand no.3 ([1]; MC4R C40Y, COS-7 cell line, ref Hughes DA, Hum Genet, 2009): 103.0 % of WT
- cAMP Emax - Ligand no.3 ([1]; MC4R D37G, ref Hughes DA, Hum Genet, 2009): 83.0 % of WT
- cAMP Emax - Ligand no.3 ([1]; MC4R F280AfsX12, ref Xiang Z, Biochemistry, 2006): 0.0 % of WT
- cAMP Emax - Ligand no.3 ([1]; MC4R I251WfsX34, ref Xiang Z, Biochemistry, 2010): 0.0 % of WT
- cAMP Emax - Ligand no.3 ([1]; MC4R L211MfsX6, HEK293, ref Ho G, J Biol Chem, 1999): 0.0 % of WT
- cAMP Emax - Ligand no.3 ([1]; MC4R L211MfsX6, ref Xiang Z, Biochemistry, 2006): 0.0 % of WT
- cAMP Emax - Ligand no.3 ([1]; MC4R Q43X, ref Alfieri A, Gene, 2010): 0.0 % of WT
- cAMP Emax - Ligand no.3 ([1]; MC4R Q307X, COS-7 cell line, ref Reinehr T, Obesity, 2009): 0.0 % of WT
- cAMP Emax - Ligand no.3 ([1]; MC4R Q307X, ref Santoro N, BMC Med Genet, 2009): 0.0 % of WT
- cAMP Emax - Ligand no.3 ([1]; MC4R R7C, COS-7 cell line, ref Hinney A, J Clin Endocrinol Metab, 2006): 75.0 % of WT
- cAMP Emax - Ligand no.3 ([1]; MC4R R7C, ref Fan ZC, J Cell Mol Med, 2009): 102.0 % of WT
- cAMP Emax - Ligand no.3 ([1]; MC4R S19AfsX34, ref Alfieri A, Gene, 2010): 0.0 % of WT
- cAMP Emax - Ligand no.3 ([1]; MC4R S36T, COS-7 cell line, ref Hughes DA, Hum Genet, 2009): 88.0 % of WT
- cAMP Emax - Ligand no.3 ([1]; MC4R T11A, ref Tao YX, J Clin Endocrinol Metab, 2005): 109.0 % of WT
- cAMP Emax - Ligand no.3 ([1]; MC4R T246DfsX41, HEK293, ref Ho G, J Biol Chem, 1999): 0.0 % of WT
- cAMP Emax - Ligand no.3 ([1]; MC4R VADML88_92del, ref Donohoue PA, J Clin Endocrinol Metab, 2003): 0.0 % of WT
- cAMP Emax - Ligand no.3 ([1]; MC4R W16X, COS-7, ref Bolze F, Pharmacogenomics J, 2013): 20.0 % of WT
- cAMP Emax - Ligand no.3 ([1]; MC4R Y35C, ref Rong R, Clin Endocrinol, 2006): 105.0 % of WT
- cAMP Emax - Ligand no.3 ([1]; MC4R Y35X, ref Xiang Z, Biochemistry, 2006): 0.0 % of WT
- Binding Bmax (% of WT) ([2]; MC4R A303P, ref Hohenadel MG, Int J Obes, 2014): 22.4 % of WT
- Binding Bmax (% of WT) ([2]; MC4R A303T, ref Tan K, Endocrinology, 2009): 86.6 % of WT
- Binding Bmax (% of WT) ([2]; MC4R C84R, HEK293 cell line, ref Huang H, Int J Biol Sci, 2014): 5.0 % of WT
- Binding Bmax (% of WT) ([2]; MC4R C84R, ref Fan ZC, J Cell Mol Med, 2009): 0.0 % of WT
- Binding Bmax (% of WT) ([2]; MC4R C271Y, HEK293 cell line, ref Huang H, Int J Biol Sci, 2014): 70.0 % of WT
- Binding Bmax (% of WT) ([2]; MC4R C271Y, ref Tao YX, Endocrinology, 2003): 0.0 % of WT
- Binding Bmax (% of WT) ([2]; MC4R C271Y, ref Xiang Z, Biochemistry, 2006): 6.7 % of WT
- Binding Bmax (% of WT) ([2]; MC4R D90N, COS-7 cell line, ref Biebermann H, Diabetes, 2003): 80.0 % of WT
- Binding Bmax (% of WT) ([2]; MC4R D90N, ref Xiang Z, Biochemistry, 2010): 108.1 % of WT
- Binding Bmax (% of WT) ([2]; MC4R E61K, ref Tan K, Endocrinology, 2009): 39.6 % of WT
- Binding Bmax (% of WT) ([2]; MC4R E61K, ref Xiang Z, Biochemistry, 2010): 2.0 % of WT
- Binding Bmax (% of WT) ([2]; MC4R E308K, ref Xiang Z, Biochemistry, 2010): 37.8 % of WT
- Binding Bmax (% of WT) ([2]; MC4R F51L, ref Tao YX, J Clin Endocrinol Metab, 2005): 108.0 % of WT
- Binding Bmax (% of WT) ([2]; MC4R F51L, ref Xiang Z, Biochemistry, 2010): 113.5 % of WT
- Binding Bmax (% of WT) ([2]; MC4R G55D, ref Tan K, Endocrinology, 2009): 68.6 % of WT
- Binding Bmax (% of WT) ([2]; MC4R G55V, ref Hohenadel MG, Int J Obes, 2014): 55.4 % of WT
- Binding Bmax (% of WT) ([2]; MC4R G55V, ref Tan K, Endocrinology, 2009): 128.5 % of WT
- Binding Bmax (% of WT) ([2]; MC4R G98R, HEK293 cell line, ref Huang H, Int J Biol Sci, 2014): 0.0 % of WT
- Binding Bmax (% of WT) ([2]; MC4R G98R, ref Xiang Z, Biochemistry, 2010): 0.541 % of WT
- Binding Bmax (% of WT) ([2]; MC4R I69R, HEK293 cell line, ref Huang H, Int J Biol Sci, 2014): 0.0 % of WT
- Binding Bmax (% of WT) ([2]; MC4R I69T, ref Tan K, Endocrinology, 2009): 24.8 % of WT
- Binding Bmax (% of WT) ([2]; MC4R I69T, ref Xiang Z, Biochemistry, 2010): 8.1 % of WT
- Binding Bmax (% of WT) ([2]; MC4R I102S, ref Roubert P, J Endocrinol, 2010): 23.5 % of WT
- Binding Bmax (% of WT) ([2]; MC4R I102S, ref Tao YX, J Clin Endocrinol Metab, 2005): 0.0 % of WT
- Binding Bmax (% of WT) ([2]; MC4R I102S, ref Xiang Z, Biochemistry, 2006): 1.6 % of WT
- Binding Bmax (% of WT) ([2]; MC4R I102T, ref Larsen LH, J Clin Endocrinol Metab, 2005): 115.0 % of WT
- Binding Bmax (% of WT) ([2]; MC4R I102T, ref Roubert P, J Endocrinol, 2010): 51.0 % of WT
- Binding Bmax (% of WT) ([2]; MC4R I102T, ref Tao YX, J Clin Endocrinol Metab, 2005): 20.0 % of WT
- Binding Bmax (% of WT) ([2]; MC4R I301T, ref Nijenhuis WA, J Biol Chem, 2003): 10.0 % of WT
- Binding Bmax (% of WT) ([2]; MC4R I301T, ref Vaisse C, J Clin Invest, 2000): 20.0 % of WT
- Binding Bmax (% of WT) ([2]; MC4R I301T, ref Xiang Z, Biochemistry, 2006): 35.6 % of WT
- Binding Bmax (% of WT) ([2]; MC4R I316S, ref Xiang Z, Biochemistry, 2006): 55.6 % of WT
- Binding Bmax (% of WT) ([2]; MC4R I316S, ref Yeo GS, Hum Mol Genet, 2003): 28.0 % of WT
- Binding Bmax (% of WT) ([2]; MC4R I317T, ref Nijenhuis WA, J Biol Chem, 2003): 42.0 % of WT
- Binding Bmax (% of WT) ([2]; MC4R I317T, ref VanLeeuwen, J Biol Chem, 2003): 66.7 % of WT
- Binding Bmax (% of WT) ([2]; MC4R I317T, ref Xiang Z, Biochemistry, 2006): 20.0 % of WT
- Binding Bmax (% of WT) ([2]; MC4R I317V, ref Fan ZC, J Cell Mol Med, 2009): 94.0 % of WT
- Binding Bmax (% of WT) ([2]; MC4R I317V, ref Xiang Z, Biochemistry, 2010): 91.9 % of WT
- Binding Bmax (% of WT) ([2]; MC4R L54P, ref Tan K, Endocrinology, 2009): 32.5 % of WT
- Binding Bmax (% of WT) ([2]; MC4R L106P, ref Xiang Z, Biochemistry, 2006): 2.2 % of WT
- Binding Bmax (% of WT) ([2]; MC4R L106P, ref Yeo GS, Hum Mol Genet, 2003): 18.7 % of WT
- Binding Bmax (% of WT) ([2]; MC4R L304F, ref van der Berg L, Obesity, 2011): 40.0 % of WT
- Binding Bmax (% of WT) ([2]; MC4R L325F, ref Fan ZC, J Cell Mol Med, 2009): 92.0 % of WT
- Binding Bmax (% of WT) ([2]; MC4R L325F, ref Larsen LH, J Clin Endocrinol Metab, 2005): 0.0 % of WT
- Binding Bmax (% of WT) ([2]; MC4R L325F, ref Xiang Z, Biochemistry, 2010): 70.3 % of WT
- Binding Bmax (% of WT) ([2]; MC4R N62S, HEK293 cell line, ref Huang H, Int J Biol Sci, 2014): 25.0 % of WT
- Binding Bmax (% of WT) ([2]; MC4R N62S, ref Tao YX, Endocrinology, 2003): 5.0 % of WT
- Binding Bmax (% of WT) ([2]; MC4R N62S, ref Xiang Z, Biochemistry, 2006): 1.4 % of WT
- Binding Bmax (% of WT) ([2]; MC4R N62S, ref Yeo GS, Hum Mol Genet, 2003): 20.0 % of WT
- Binding Bmax (% of WT) ([2]; MC4R N97D, ref Xiang Z, Biochemistry, 2006): 8.9 % of WT
- Binding Bmax (% of WT) ([2]; MC4R N97D, ref Yeo GS, Hum Mol Genet, 2003): 10.5 % of WT
- Binding Bmax (% of WT) ([2]; MC4R N274S, ref Tao YX, Endocrinology, 2003): 144.0 % of WT
- Binding Bmax (% of WT) ([2]; MC4R N274S, ref Xiang Z, Biochemistry, 2006): 66.7 % of WT
- Binding Bmax (% of WT) ([2]; MC4R P48S, ref Tao YX, Endocrinology, 2003): 79.0 % of WT
- Binding Bmax (% of WT) ([2]; MC4R P48S, ref Xiang Z, Biochemistry, 2010): 48.6 % of WT
- Binding Bmax (% of WT) ([2]; MC4R P78L, HEK293 cell line, ref Huang H, Int J Biol Sci, 2014): 0.0 % of WT
- Binding Bmax (% of WT) ([2]; MC4R P78L, ref Nijenhuis WA, J Biol Chem, 2003): 0.9 % of WT
- Binding Bmax (% of WT) ([2]; MC4R P78L, ref Tao YX, Endocrinology, 2003): 0.0 % of WT
- Binding Bmax (% of WT) ([2]; MC4R P78L, ref Xiang Z, Biochemistry, 2006): 0.556 % of WT
- Binding Bmax (% of WT) ([2]; MC4R P299H, ref Roubert P, J Endocrinol, 2010): 0.0 % of WT
- Binding Bmax (% of WT) ([2]; MC4R P299H, ref Xiang Z, Biochemistry, 2006): 1.2 % of WT
- Binding Bmax (% of WT) ([2]; MC4R P299L, ref Xiang Z, Biochemistry, 2010): 2.4 % of WT
- Binding Bmax (% of WT) ([2]; MC4R R305W, ref Roubert P, J Endocrinol, 2010): 193.9 % of WT
- Binding Bmax (% of WT) ([2]; MC4R S58C, ref Roubert P, J Endocrinol, 2010): 27.6 % of WT
- Binding Bmax (% of WT) ([2]; MC4R S58C, ref Tao YX, Endocrinology, 2003): 14.0 % of WT
- Binding Bmax (% of WT) ([2]; MC4R S58C, ref Xiang Z, Biochemistry, 2006): 22.2 % of WT
- Binding Bmax (% of WT) ([2]; MC4R S94R, ref Xiang Z, Biochemistry, 2010): 0.135 % of WT
- Binding Bmax (% of WT) ([2]; MC4R S295P, ref Tao YX, J Clin Endocrinol Metab, 2005): 129.0 % of WT
- Binding Bmax (% of WT) ([2]; MC4R S295P, ref Xiang Z, Biochemistry, 2010): 162.2 % of WT
- Binding Bmax (% of WT) ([2]; MC4R T112M, ref Nijenhuis WA, J Biol Chem, 2003): 100.0 % of WT
- Binding Bmax (% of WT) ([2]; MC4R T112M, ref Tao YX, J Clin Endocrinol Metab, 2005): 130.0 % of WT
- Binding Bmax (% of WT) ([2]; MC4R V50M, ref Roubert P, J Endocrinol, 2010): 69.4 % of WT
- Binding Bmax (% of WT) ([2]; MC4R V50M, ref Tao YX, Endocrinology, 2003): 74.0 % of WT
- Binding Bmax (% of WT) ([2]; MC4R V50M, ref Xiang Z, Biochemistry, 2010): 59.5 % of WT
- Binding Bmax (% of WT) ([2]; MC4R V95I, ref Xiang Z, Biochemistry, 2006): 0.7 % of WT
- Binding Bmax (% of WT) ([2]; MC4R V103I, ref Ho G, J Biol Chem, 1999): 123.3 % of WT
- Binding Bmax (% of WT) ([2]; MC4R V103I, ref Xiang Z, Biochemistry, 2006): 100.0 % of WT
- Binding Bmax (% of WT) ([2]; MC4R Y302F, ref Roth CL, Endocrine, 2009): 80.0 % of WT
- Binding Bmax (% of WT) ([2]; MC4R Y332H, ref Santoro N, BMC Med Genet, 2009): 100.0 % of WT
